From patent publication US10821100B2, “Triazolone compounds as mPGES-1 inhibitors” (Glenmark Pharmaceuticals S.A., priority 2012, dated 2020)

Biological target: T1, Recombinant human mPGES-1 (Homo sapiens, UniProt O14684)
T1 construct: made in house; host or cells: CHO cells (crude microsomal fractions)
T1 sequence (O14684 1-152): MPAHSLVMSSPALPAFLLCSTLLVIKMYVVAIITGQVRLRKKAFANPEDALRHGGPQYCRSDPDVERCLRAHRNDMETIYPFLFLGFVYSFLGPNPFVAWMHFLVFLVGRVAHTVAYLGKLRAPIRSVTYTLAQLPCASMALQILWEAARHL
Experiment: In-vitro screening of mPGES-1 inhibitors (inhibition of PGE2 formation from PGH2, HTRF detection)
Type: biochemical
Conditions: mPGES-1 enzyme; for inhibition at 1 µM: 1 μM test compound, read-out: Percentage inhibition at 1 μM; for inhibition at 1 µM / inhibition at 10 µM: crude microsomal fractions; for inhibition at 10 µM: 10 μM test compound, read-out: Percentage inhibition at 10 μM; for IC50: class symbols
Summary of the method: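 PGH2-to-PGE2 isomerization run for 1 min with 15 μM PGH2 after 10 min compound preincubation with microsomal enzyme (40–60 μg/mL) and 2.5 mM GSH, pH buffer 0.1 M potassium phosphate with EDTA. Stannous chloride quench, HTRF PGE2 readout, IC50 fitted against uninhibited reaction.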

Row | SMILES | inhibition at 1 µM [%] | inhibition at 10 µM [%] | IC50 [nM]
1 | O=C(NCc1ccc(Cl)c(-c2nn(-c3ccc(C(F)(F)F)cc3)c(=O)[nH]2)c1)C1CCCC1 [Example-185, N-(4-Chloro-3-(5-oxo-1-(4-(trifluoromethyl)phenyl)-4,5-dihydro-1H-1,2,4-triazol-3-yl)benzyl)cyclopentanecarboxamide] | 96.1 | 98.3 | < 50
2 | CC(C)(C)C(=O)NCc1cnc(C(F)F)c(-c2nn(-c3ccc(C(F)(F)F)cc3)c(=O)[nH]2)c1 [Example-186] | 96.8 | 98 | < 50
3 | CC(C)C(=O)NCc1cnc(C(F)F)c(-c2nn(-c3ccc(C(F)(F)F)cc3)c(=O)[nH]2)c1 [Example-187, N-((6-(Difluoromethyl)-5-(5-oxo-1-(4-(trifluoromethyl)phenyl)-4,5-dihydro-1H-1,2,4-triazol-3-yl)pyridin-3-yl)methyl)isobutyramide] | 98.6 | 97.5 | < 50
4 | CC(C)S(=O)(=O)NCc1cnc(C(F)F)c(-c2nn(-c3ccc(C(F)(F)F)cc3)c(=O)[nH]2)c1 [Example-188, N-((6-(Difluoromethyl)-5-(5-oxo-1-(4-(trifluoromethyl)phenyl)-4,5-dihydro-1H-1,2,4-triazol-3-yl)pyridin-3-yl)methyl)propane-2-sulfonamide] | 89.5 | 99.3 | 50 to 100
5 | O=C(NCc1cnc(C(F)F)c(-c2nn(-c3ccc(C(F)(F)F)cc3)c(=O)[nH]2)c1)C1CCC1 [Example-189, N-((6-(Difluoromethyl)-5-(5-oxo-1-(4-(trifluoromethyl)phenyl)-4,5-dihydro-1H-1,2,4-triazol-3-yl)pyridin-3-yl)methyl)cyclobutanecarboxamide] | 96.2 | 98.5 | < 50
6 | O=C(NCc1ccc(Cl)c(-n2nc(-c3ccc(C#CC4CC4)cc3)[nH]c2=O)c1)C(F)(F)F [Example-190, N-(4-Chloro-3-(3-(4-(cyclopropylethynyl)phenyl)-5-oxo-4,5-dihydro-1H-1,2,4-triazol-1-yl)benzyl)-2,2,2-trifluoroacetamide] | 100 | 100 | < 50
7 | CC(C)(CO)C(=O)NCc1ccc(Cl)c(-n2nc(-c3ccc(C#CC4CC4)cc3)[nH]c2=O)c1 [Example-191, N-(4-Chloro-3-(3-(4-(cyclopropylethynyl)phenyl)-5-oxo-4,5-dihydro-1H-1,2,4-triazol-1-yl)benzyl)-3-hydroxy-2,2-dimethylpropanamide] | 93.5 | 100 | > 100
8 | CC(C)(CF)C(=O)NCc1cnc(C(F)F)c(-c2nn(-c3ccc(C(F)(F)F)cc3)c(=O)[nH]2)c1 [Example-192, 3-Fluoro-N-((6-(difluoromethyl)-5-(1-(4-(trifluoromethyl)phenyl)-4,5-dihydro-5-oxo-1H-1,2,4-triazol-3-yl)pyridin-3-yl)methyl)-2,2-dimethylpropanamide] | 99.3 | 99.3 | < 50
